Measured values reported in publication PMC10354055, “An optimized Nurr1 agonist provides disease-modifying effects in Parkinson’s disease models” (Nature Communications, 2023).
“And” between values parts separate entries of the source, which are not always exact repeats. Equal entries are not always repeated.

How the values were obtained:
Assay in all cases: Luciferase assay with point-mutants of Nurr1-LBD, SK-N-BE(2)C cells;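 note: Firefly luciferase normalized to beta-galactosidase activity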
Type in all cases: cell-based
Nurr1-LBD point mutants [1] = molecular target: T1, Nurr1-LBD point mutants (Mus musculus, UniProt Q06219, K590A); details: Supplementary Fig. 2, K590A
T1 construct: expressed in transfected cells; host or cells: SK-N-BE(2)C
T1 sequence (Q06219 whole entry K590A, the tested form may be a part): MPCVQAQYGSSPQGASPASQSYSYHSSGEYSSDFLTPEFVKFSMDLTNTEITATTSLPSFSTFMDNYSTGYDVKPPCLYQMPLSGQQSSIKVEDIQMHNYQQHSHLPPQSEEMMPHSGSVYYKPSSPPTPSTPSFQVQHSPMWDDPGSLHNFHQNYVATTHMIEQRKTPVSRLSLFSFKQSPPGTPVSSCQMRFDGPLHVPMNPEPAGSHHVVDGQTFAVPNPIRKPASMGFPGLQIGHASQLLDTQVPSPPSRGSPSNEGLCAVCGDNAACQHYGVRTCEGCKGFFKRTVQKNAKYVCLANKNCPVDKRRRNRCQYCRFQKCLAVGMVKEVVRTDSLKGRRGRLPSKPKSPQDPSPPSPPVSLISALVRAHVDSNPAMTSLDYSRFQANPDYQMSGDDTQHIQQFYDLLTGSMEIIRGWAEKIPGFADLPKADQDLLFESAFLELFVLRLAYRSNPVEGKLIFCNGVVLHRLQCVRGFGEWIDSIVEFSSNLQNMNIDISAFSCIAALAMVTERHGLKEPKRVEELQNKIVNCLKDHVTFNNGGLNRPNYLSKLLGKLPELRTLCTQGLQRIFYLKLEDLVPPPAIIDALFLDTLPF
Method: (§1) Nurr1 transactivity was normalized to β-galactosidase activity.
(§2) Nurr1 mutants were generated using the QuikChange ǁ XL site-directed mutagenesis kit (Agilent Technologies) according to the manufacturer’s instruction. Mutagenesis reactions were carried out on the plasmid of mouse Nurr1 cloned into pcDNA3.1 backbone, and then verified by sequencing.

Nurr1-LBD point mutants [2] = molecular target: T2, Nurr1-LBD point mutants (Mus musculus, UniProt Q06219, S441A); details: Supplementary Fig. 2, S441A
T2 construct: expressed in transfected cells; host or cells: SK-N-BE(2)C
T2 sequence (Q06219 whole entry S441A, the tested form may be a part): as the sequence (Q06219 whole entry K590A, the tested form may be a part) above, with S441A, A590K counted along it
Method: as §1, §2

Nurr1-LBD point mutants [3] = molecular target: T3, Nurr1-LBD point mutants (Mus musculus, UniProt Q06219, D594A); details: Supplementary Fig. 2, D594A
T3 construct: expressed in transfected cells; host or cells: SK-N-BE(2)C
T3 sequence (Q06219 whole entry D594A, the tested form may be a part): as the sequence (Q06219 whole entry K590A, the tested form may be a part) above, with A590K, D594A counted along it
Method: as §1, §2

Nurr1-LBD point mutants [4] = molecular target: T4, Nurr1-LBD point mutants (Mus musculus, UniProt Q06219, L593A); details: Supplementary Fig. 2, L593A
T4 construct: expressed in transfected cells; host or cells: SK-N-BE(2)C
T4 sequence (Q06219 whole entry L593A, the tested form may be a part): as the sequence (Q06219 whole entry K590A, the tested form may be a part) above, with A590K, L593A counted along it
Method: as §1, §2

Nurr1-LBD point mutants [5] = molecular target: T5, Nurr1-LBD point mutants (Mus musculus, UniProt Q06219); details: Supplementary Fig. 2, WT
T5 construct: expressed in transfected cells; host or cells: SK-N-BE(2)C
T5 sequence (Q06219 whole entry, change not shown, the tested form may be a part): as the sequence (Q06219 whole entry K590A, the tested form may be a part) above, with A590K counted along it
Method: as §1, §2

CCN(CC)Cc1cc(Nc2ccnc3cc(Cl)ccc23)ccc1O [AQ, amodiaquine]
Luciferase activity (fold) (Nurr1-LBD point mutants [1]): 14.5075 fold and 14.599 fold and 17.3856 fold | Luciferase activity (fold) (Nurr1-LBD point mutants [2]): 14.9384 fold and 15.2215 fold and 14.6264 fold | Luciferase activity (fold) (Nurr1-LBD point mutants [3]): 15.1749 fold and 15.4902 fold and 14.0814 fold | Luciferase activity (fold) (Nurr1-LBD point mutants [4]): 14.8074 fold and 14.193 fold and 15.2957 fold | Luciferase activity (fold) (Nurr1-LBD point mutants [5]): 16.1226 fold and 16.0906 fold and 15.547 fold
